Patent US9040529B2 (Vichem Chemie Kutató Kft., priority 2009, dated 2015)
Structures can show the parent of a compound that is named as a salt.

target: T1, human CDK9/CyclinT kinase complex (Homo sapiens, UniProt P50750); test: In vitro CDK9/CyclinT assay (IMAP fluorescence polarization kinase assay); assay type: biochemical; conditions: not given
T1 construct: purchased Proqinase 0371-0345-1
Experimental: In Vitro CDK9/CyclinT Assay
The activity of the compounds described in the present invention can be determined by the following kinase assay, which measures the phosphorylation of a fluorescently-labeled peptide by human CDK9/CyclinT kinase complex by fluorescent polarization using a commercially available IMAP Screening Express Assay Kit (Molecular devices).
CDK9 kinase assays were performed in low protein binding 384-well plates (Corning 3676). Test compounds were diluted in 100% DMSO to 5 mM stock concentration, then further dilutions were made in H2O or 100% DMSO to desirable concentrations.
Each reaction consisted of 5 nM enzyme: CDK9/CyclinT (Proqinase cat#0371-0345-1), 400 nM TAMRA-Rbtide (synthetic 15-mer peptide derived from human retinoblastoma tumor suppressor protein labelled with TAMRA dye, Genecust Europe), 12 μM ATP (=Kmapp, Sigma-Aldrich) and kinase buffer: 20 mM MOPS pH 7 (Sigma-Aldrich), 1 mM DTT (Sigma-Aldrich), 10 mM MgCl2 (Sigma-Aldrich), 0.01% Tween 20 (Sigma-Aldrich).
For each reaction, 4 or 6 μl containing TAMRA-Rbtide, ATP and kianse buffer were combined with 2 μl diluted compound in H2O or 0.028 μl compound in 100% DMSO. The kinase reaction was started by the addition of 2 μl diluted enzyme. The reaction was allowed to run for 1 hours at room temperature. The reaction was stopped by adding 15 μl IMAP beads (1:400 beads in progressive (100% buffer A) 1× buffer). After an additional 1 hours, fluorescent polarization (Ex: 550-10 nm, Em: 590-10 nm, Dich: 561 nm) was measured using an Analyst GT (Molecular devices).

T1 sequence (P50750 whole entry): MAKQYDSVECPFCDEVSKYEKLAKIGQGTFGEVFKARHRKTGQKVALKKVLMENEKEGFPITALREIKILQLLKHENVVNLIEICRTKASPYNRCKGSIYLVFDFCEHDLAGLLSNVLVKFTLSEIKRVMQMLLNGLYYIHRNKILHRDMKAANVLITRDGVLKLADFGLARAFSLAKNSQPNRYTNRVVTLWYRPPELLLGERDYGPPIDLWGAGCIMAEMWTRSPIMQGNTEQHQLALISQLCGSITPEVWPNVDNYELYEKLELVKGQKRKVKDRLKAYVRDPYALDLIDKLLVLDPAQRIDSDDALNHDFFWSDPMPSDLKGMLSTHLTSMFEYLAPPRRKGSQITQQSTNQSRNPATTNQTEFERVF
T1 sequence (O60563 whole entry partner): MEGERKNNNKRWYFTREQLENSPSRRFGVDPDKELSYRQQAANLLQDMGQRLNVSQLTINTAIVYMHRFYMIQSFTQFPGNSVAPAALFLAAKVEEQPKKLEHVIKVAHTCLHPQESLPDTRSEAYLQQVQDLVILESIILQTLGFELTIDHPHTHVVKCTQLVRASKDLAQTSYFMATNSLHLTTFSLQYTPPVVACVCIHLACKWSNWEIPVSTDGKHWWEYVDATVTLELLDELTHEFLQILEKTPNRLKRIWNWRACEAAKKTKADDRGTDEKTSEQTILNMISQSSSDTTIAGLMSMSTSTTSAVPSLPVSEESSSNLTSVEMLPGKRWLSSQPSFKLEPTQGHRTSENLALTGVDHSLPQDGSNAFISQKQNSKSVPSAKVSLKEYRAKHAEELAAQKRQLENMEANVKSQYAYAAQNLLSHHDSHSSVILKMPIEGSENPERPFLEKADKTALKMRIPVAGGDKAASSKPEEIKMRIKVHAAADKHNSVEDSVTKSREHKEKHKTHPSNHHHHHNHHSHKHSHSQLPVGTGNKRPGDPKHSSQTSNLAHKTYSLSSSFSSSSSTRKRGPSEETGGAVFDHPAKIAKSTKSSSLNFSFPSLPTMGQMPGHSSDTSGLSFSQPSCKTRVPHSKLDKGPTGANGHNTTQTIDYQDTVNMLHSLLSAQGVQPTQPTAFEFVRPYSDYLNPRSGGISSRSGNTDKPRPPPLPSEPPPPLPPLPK

CDK9 inhibitory effect | SMILES
nanomolar or low nanomolar range | COc1cc(F)ccc1-c1cc(Nc2cccc(CNS(C)(=O)=O)c2)ncn1 [Example 7, N-{3-[6-(4-Fluoro-2-methoxy-phenyl)-pyrimidin-4-ylamino]-benzyl}-methanesulfonamide]
nanomolar or low nanomolar range | CCCOc1ccccc1-c1cc(Nc2ccc(CNS(C)(=O)=O)cc2)ncn1 [Example 53, N-{4-[6-(2-Propoxy-phenyl)-pyrimidin-4-ylamino]-benzyl}-methanesulfonamide]
nanomolar or low nanomolar range | COc1ccc(F)cc1-c1cc(Nc2cccc(Cn3cnc4ccccc43)c2)ncn1 [Example 66, (3-Benzoimidazol-1-ylmethyl-phenyl)-[6-(5-fluoro-2-methoxy-phenyl)-pyrimidin-4-yl]-amine]
nanomolar or low nanomolar range | CS(=O)(=O)NCc1ccc(Nc2cc(-c3ccccc3OCc3ccccc3)ncn2)cc1 [Example 35, N-{4-[6-(2-Benzyloxy-phenyl)-pyrimidin-4-ylamino]-benzyl}-methanesulfonamide]
nanomolar or low nanomolar range | COc1ccccc1-c1cc(Nc2cccc(Cn3cnc4ccccc43)c2)ncn1 [Example 64, (3-Benzoimidazol-1-ylmethyl-phenyl)-[6-(2-methoxy-phenyl)-pyrimidin-4-yl]-amine]

same assay, conditions: 5 nM CDK9/CyclinT, 400 nM TAMRA-Rbtide, 12 μM ATP, 1 hour at room temperature; read-out: CDK9 inhibitory range

SMILES | IC50 [µM]
CC(C)COc1ccccc1-c1cc(Nc2ccc(CNS(C)(=O)=O)cc2)ncn1 [Example 51, N-{4-[6-(2-Isobutoxy-phenyl)-pyrimidin-4-ylamino]-benzyl}-methanesulfonamide] | < 1
COc1cc(F)ccc1-c1cc(Nc2cccc(CNS(C)(=O)=O)c2)ncn1 [Example 7, N-{3-[6-(4-Fluoro-2-methoxy-phenyl)-pyrimidin-4-ylamino]-benzyl}-methanesulfonamide] | < 0.1
CS(=O)(=O)NCc1cccc(Nc2cc(-c3ccccc3OC(F)(F)F)ncn2)c1 [Example 15, N-{3-[6-(2-Trifluoromethoxy-phenyl)-pyrimidin-4-ylamino]-benzyl}-methanesulfonamide] | < 10
CS(=O)(=O)NCc1cccc(Nc2cc(Cl)ncn2)c1 [Example 1, N-[3-(6-Chloro-pyrimidin-4-ylamino)-benzyl]-methanesulfonamide] | > 10
C[S+]([O-])c1ccccc1-c1cc(Nc2cccc(CNS(C)(=O)=O)c2)ncn1 (centres unmarked) [Example 29, N-{3-[6-(2-Methanesulfinyl-phenyl)-pyrimidin-4-ylamino]-benzyl}-methanesulfonamide] | < 10
CS(=O)(=O)NCc1cccc(Nc2cc(-c3ccccc3COc3ccc(OC(F)(F)F)cc3)ncn2)c1 [Example 30, N-(3-{6-[2-(4-Trifluoromethoxy-phenoxymethyl)-phenyl]-pyrimidin-4-ylamino}-benzyl)-methanesulfonamide] | > 10
CCCOc1ccccc1-c1cc(Nc2cccc(CNS(C)(=O)=O)c2)ncn1 [Example 31, N-{3-[6-(2-Propoxy-phenyl)-pyrimidin-4-ylamino]-benzyl}-methanesulfonamide] | < 1
CCc1ccccc1-c1cc(Nc2cccc(CNS(C)(=O)=O)c2)ncn1 [Example 12, N-{3-[6-(2-Ethyl-phenyl)-pyrimidin-4-ylamino]-benzyl}-methanesulfonamide] | < 1
COc1ccc(-c2cc(Nc3cccc(CNS(C)(=O)=O)c3)ncn2)c(OC)c1 [Example 24, N-{3-[6-(2,4-Dimethoxy-phenyl)-pyrimidin-4-ylamino]-benzyl}-methanesulfonamide] | < 1
C=C(c1ccccc1)c1cc(Nc2cccc(CNS(C)(=O)=O)c2)ncn1 [Example 3] | < 10
CS(=O)(=O)NCc1cccc(Nc2cc(-c3ccccc3F)ncn2)c1 [Example 16, N-{3-[6-(2-Fluoro-phenyl)-pyrimidin-4-ylamino]-benzyl}-methanesulfonamide] | < 10
CC(C)Oc1cc(F)ccc1-c1cc(Nc2cccc(CNS(C)(=O)=O)c2)ncn1 [Example 14, N-{3-[6-(4-Fluoro-2-isopropoxy-phenyl)-pyrimidin-4-ylamino]-benzyl}-methanesulfonamide] | < 1
CS(=O)(=O)NCc1cccc(Nc2cc(-c3cccc4c3OCO4)ncn2)c1 [Example 27, N-[3-(6-Benzo[1,3]dioxol-4-yl-pyrimidin-4-ylamino)-benzyl]-methanesulfonamide] | < 1
COc1ccc(-c2cc(Nc3cccc(CNS(C)(=O)=O)c3)ncn2)cc1 [Example 19, N-{3-[6-(4-Methoxy-phenyl)-pyrimidin-4-ylamino]-benzyl}-methanesulfonamide] | < 10

The remaining lines, values ahead:

IC50 [µM] | SMILES
< 1 | COc1ccc(COc2ccccc2-c2cc(Nc3ccc(CNS(C)(=O)=O)cc3)ncn2)cc1 [Example 50, N-(4-{6-[2-(4-Methoxy-benzyloxy)-phenyl]-pyrimidin-4-ylamino}-benzyl)-methanesulfonamide]
> 10 | O=C1c2ccccc2C(=O)N1Cc1cccc(Nc2cc(Cl)ncn2)c1 [Example 67, 2-[3-(6-Chloro-pyrimidin-4-ylamino)-benzyl]-isoindole-1,3-dione]
< 0.1 | CCCOc1ccccc1-c1cc(Nc2ccc(CNS(C)(=O)=O)cc2)ncn1 [Example 53, N-{4-[6-(2-Propoxy-phenyl)-pyrimidin-4-ylamino]-benzyl}-methanesulfonamide]
< 10 | CS(=O)(=O)NCc1ccc(Nc2cc(-c3cccc(N)c3)ncn2)cc1 [Example 46, N-{4-[6-(3-Amino-phenyl)-pyrimidin-4-ylamino]-benzyl}-methanesulfonamide hydrochloride]
< 0.1 | CC(C)Oc1ccccc1-c1cc(Nc2cccc(Cn3cnc4ccccc43)c2)ncn1 [Example 80, (3-Benzoimidazol-1-ylmethyl-phenyl)-[6-(2-isopropoxy-phenyl)-pyrimidin-4-yl]-amine]
< 0.1 | CS(=O)(=O)NCc1cccc(Nc2cc(-c3ccc(O)cc3)ncn2)c1 [Example 75, N-{3-[6-(4-Hydroxy-phenyl)-pyrimidin-4-ylamino]-benzyl}-methanesulfonamide]
< 10 | CS(=O)(=O)NCc1ccc(Nc2cc(-c3ccccc3F)ncn2)cc1 [Example 44, N-{4-[6-(2-Fluoro-phenyl)-pyrimidin-4-ylamino]-benzyl}-methanesulfonamide]
< 10 | Oc1cccc(-c2cc(Nc3cccc(Cn4cnc5ccccc54)c3)ncn2)c1 [Example 83, 3-[6-(3-Benzoimidazol-1-ylmethyl-phenylamino)-pyrimidin-4-yl]-phenol]
< 1 | CS(=O)(=O)NCc1ccc(Nc2cc(-c3ccc(O)cc3)ncn2)cc1 [Example 76, N-{4-[6-(4-Hydroxy-phenyl)-pyrimidin-4-ylamino]-benzyl}-methanesulfonamide]
< 0.1 | COc1ccc(F)cc1-c1cc(Nc2cccc(Cn3cnc4ccccc43)c2)ncn1 [Example 66, (3-Benzoimidazol-1-ylmethyl-phenyl)-[6-(5-fluoro-2-methoxy-phenyl)-pyrimidin-4-yl]-amine]
< 0.1 | CS(=O)(=O)NCc1ccc(Nc2cc(-c3ccccc3OCc3ccccc3)ncn2)cc1 [Example 35, N-{4-[6-(2-Benzyloxy-phenyl)-pyrimidin-4-ylamino]-benzyl}-methanesulfonamide]
< 1 | COc1ccccc1-c1cc(Nc2cccc(CNS(=O)(=O)c3cccs3)c2)ncn1 [Example 73, Thiophene-2-sulfonic acid 3-[6-(2-methoxy-phenyl)-pyrimidin-4-ylamino]-benzylamide]
< 0.1 | COc1ccccc1-c1cc(Nc2cccc(Cn3cnc4ccccc43)c2)ncn1 [Example 64, (3-Benzoimidazol-1-ylmethyl-phenyl)-[6-(2-methoxy-phenyl)-pyrimidin-4-yl]-amine]
> 10 | Clc1cc(Nc2cccc(Cn3c(CN4CCOCC4)nc4ccccc43)c2)ncn1 [Example 92, (6-Chloro-pyrimidin-4-yl)-[3-(2-morpholin-4-ylmethyl-benzoimidazol-1-ylmethyl)-phenyl]amine]
< 1 | COc1ccccc1-c1cc(Nc2cccc(CNS(=O)(=O)c3ccc(F)cc3)c2)ncn1 [Example 72, 4-Fluoro-N-{3-[6-(2-methoxy-phenyl)-pyrimidin-4-ylamino]-benzyl}-benzenesulfonamide]
< 1 | COc1ccccc1-c1cc(Nc2cccc(CNc3nc4ccccc4[nH]3)c2)ncn1 [Example 60, (1H-Benzoimidazol-2-yl)-{3-[6-(2-methoxy-phenyl)-pyrimidin-4-ylamino]-benzyl}-amine]
